In this assay the target is T1, HIV-1 protease wild type protein (Human immunodeficiency virus type 1 group M subtype B, UniProt P04585).
T1 construct: HIV-1 protease wild type protein; purchased AscoProt Biotech, Prague, Czech Republic
The assay is described as follows: Biochemical protease assay. Here is the method: For the determination of their in vitro activity on HIV proteases the test substances are dissolved in DMSO and serially diluted. In each case 0.5 μl of substance dilution, 20 μl of 0.2-1 nM HIV-1 protease wild type or mutant protein (e.g., multiresistant isolate “35513”: L10I, I15V, L19I, K20R, E35D, M36I, R41K, I54V, L63P, H69K, A71V, T74P, I84V, L89M, L90M, 193L, AscoProt Biotech, Prague, Czech Republic) in buffer 1 (50 mM sodium acetate pH 4.9, 0.02% BSA, 0.1 mM EDTA, 0.5 mM DTT) and 20 μl of 8 μM substrate (M1865 from Bachem, Bubendorf, Switzerland; Matayoshi et al., Science 1990, 247, 954-8) in buffer 1 are added successively to a 384 well microtiter plate (Greiner, Frickenhausen, Germany), incubated for 60-180 minutes at 32° C. and the fluorescence is measured (e.g., Tecan Safire, 340 nm extinction, 520 nm emission). IC50 values are determined by graphical plotting the substance concentration against the percentage inhibition.

Molecules are shown by their SMILES.

Broadly, the IC50 is the point on the concentration scale where inhibition reaches its midpoint. Take `Cc1cc(C2=C(O)C3(CCCCC3)OC2=O)c(Cl)cc1-c1cccc(S(C)(=O)=O)c1` [Example 71]: the IC50 is ≤ 100 nM.

With `Cc1cc(-c2cccc(NS(C)(=O)=O)c2)c(Cl)cc1C1=C(O)C2(CCCCC2)OC1=O` [Example 176, N-[2′-Chloro-4′-(4-hydroxy-2-oxo-1-oxaspiro[4.5]dec-3-en-3-yl)-5′-methylbiphenyl-3-yl]methanesulfonamide], the IC50 was ≤ 100 nM.

For the compound `Cc1ccccc1CNC(=O)CN1CCCC2(C1)OC(=O)C(c1cc(Cl)c(-c3cccc(S(C)(=O)=O)c3)cc1C)=C2O` (stereo not shown) [Example 132], the IC50 is ≤ 100 nM.

Consider `Cc1cc(-c2cccc(S(C)(=O)=O)c2)c(Cl)cc1C1=C(O)C2(CCN(C(=O)OCC(C)(C)C)CC2)OC1=O` [Example 152], for which the IC50 was ≤ 100 nM.

As for `Cc1cc(C2=C(O)C3(CCCCC3)OC2=O)c(Cl)cc1-c1ccc(Cl)cc1` [Example 70], the IC50 is ≤ 100 nM.

Consider `Cc1cc(-c2ccc(OC(F)(F)F)cc2)c(Cl)cc1C1=C(O)C2(CCCCC2)OC1=O` [Example 35], for which the IC50 was ≤ 100 nM.

In the case of `CCS(=O)(=O)c1ccc(-c2cc(C)c(C3=C(O)C4(CCCCC4)OC3=O)cc2Cl)cc1` [Example 42], the IC50 was ≤ 100 nM.

Turning to `Cc1cc(-c2cccc(S(C)(=O)=O)c2)c(Cl)cc1C1=C(O)C2(CCCCC2)OC1=O` [Example 36], the IC50 is ≤ 100 nM.

Turning to `Cc1cc(-c2cccc(NS(C)(=O)=O)c2)c(Cl)cc1C1=C(O)C2(CCCC2)OC1=O` [Example 202], the IC50 is ≤ 100 nM.

For the compound `Cc1cc(-c2ccc(NS(C)(=O)=O)cc2)c(Cl)cc1C1=C(O)C2(CCC3CCCC3C2)OC1=O` (stereo not shown) [Example 180], the IC50 is ≤ 100 nM.

As for `Cc1cc(-c2cccc(S(C)(=O)=O)c2)c(Cl)cc1C1=C(O)C2(CCN(C(=O)N3CCCC3)CC2)OC1=O` [Example 155], the concentration for half-maximal inhibition (IC50) is ≤ 100 nM.

On to `Cc1cc(-c2cccc(S(C)(=O)=O)c2)c(Cl)cc1C1=C(O)C2(CCCN(CC(=O)NC(C)C)C2)OC1=O` (stereo not shown) [Example 101], for which the IC50 was ≤ 100 nM.

With `COC1CCC2(CC1)OC(=O)C(c1cc(C)c(-c3cccc(C#N)c3)cc1C)=C2O` (stereo not shown) [Example 56], the IC50 is ≤ 100 nM.

Regarding `Cc1cc(-c2cccc(C(N)=O)c2)c(Cl)cc1C1=C(O)C2(CCCCC2)OC1=O` [Example 41], the IC50 is ≤ 100 nM.

For the compound `CCOC(=O)N1CCC2(CC1)OC(=O)C(c1cc(Cl)c(-c3cccc(S(C)(=O)=O)c3)cc1C)=C2O` [Example 153], the IC50 was ≤ 100 nM.

For `COc1cccc(-c2cc(Cl)c(C3=C(O)C4(CCCCC4)OC3=O)cc2C)c1` [Example 69], the IC50 is ≤ 100 nM.

Consider `CCOC1CCCCC12OC(=O)C(c1cc(C)c(-c3ccc(Cl)cc3)cc1Cl)=C2O` (single isomer, unassigned) [Example 82], for which the IC50 is ≤ 100 nM.

In the case of `Cc1cc(-c2cccc(S(C)(=O)=O)c2)c(Cl)cc1C1=C(O)C2(CCCN(C(=O)/C=C/c3cccnc3)C2)OC1=O` (stereo not shown) [Example 111], the IC50 is ≤ 100 nM.

In the case of `Cc1cc(-c2cccc(S(C)(=O)=O)c2)c(Cl)cc1C1=C(O)C2(CCCN(C(=O)CCC(=O)c3ccccn3)C2)OC1=O` (stereo not shown) [Example 108], the IC50 was ≤ 100 nM.

With `Cc1cc(-c2ccc(C(=O)NC3CC3)cc2)c(Cl)cc1C1=C(O)C2(CCCCC2)OC1=O` [Example 49], the IC50 is ≤ 100 nM.

Take `Cc1cc(-c2cccc(S(C)(=O)=O)c2)c(Cl)cc1C1=C(O)C2(CCCN(Cc3nc4ccccc4[nH]3)C2)OC1=O` (stereo not shown) [Example 99]: the IC50 was ≤ 100 nM.

For `COC1CCC2(CC1)OC(=O)C(c1cc(Cl)c(-c3ccc(F)cc3)cc1C)=C2O` (stereo not shown) [Example 54], the IC50 is ≤ 100 nM.

`CCN(CC)C(=O)N1CCC2(CC1)OC(=O)C(c1cc(Cl)c(-c3cccc(S(C)(=O)=O)c3)cc1C)=C2O` [Example 157]: the IC50 was ≤ 100 nM.

For the compound `Cc1cc(-c2cccc(S(C)(=O)=O)c2)c(Cl)cc1C1=C(O)C2(CCN(C(=O)CCCS(N)(=O)=O)CC2)OC1=O` [Example 140], the concentration for half-maximal inhibition (IC50) was ≤ 100 nM.

On to `Cc1cc(-c2cccc(S(C)(=O)=O)c2)c(Cl)cc1C1=C(O)C2(CCCN(S(=O)(=O)Cc3ccccc3)C2)OC1=O` (stereo not shown) [Example 110], for which the IC50 is ≤ 100 nM.

With `Cc1cc(-c2ccc(Cl)cc2)c(C)cc1C1=C(O)C2(CCC(C)C(C)C2)OC1=O` (stereo not shown) [Example 9], the IC50 is ≤ 100 nM.

For the compound `Cc1cc(-c2cccc(S(C)(=O)=O)c2)c(Cl)cc1C1=C(O)C2(CCCN(C(=O)CCOc3ccccc3)C2)OC1=O` (stereo not shown) [Example 100], the IC50 is ≤ 100 nM.

On to `Cc1cc(-c2cccc(N)c2)c(Cl)cc1C1=C(O)[C@]2(CC[C@@H]3CCC[C@@H]3C2)OC1=O` [Example 175], for which the IC50 is ≤ 100 nM.

As for `Cc1cc(-c2cccc(NS(C)(=O)=O)c2)c(Cl)cc1C1=C(O)C2(CCN(C(=O)OCc3ccccc3)CC2)OC1=O` [Example 91], the IC50 is ≤ 100 nM.

As for `COC1CCC2(CC1)OC(=O)C(c1cc(C)c(-c3cccc(C(F)(F)F)c3)cc1C)=C2O` (stereo not shown) [Example 57], the IC50 is ≤ 100 nM.

As to `CC(=O)c1cccc(-c2cc(C)c(C3=C(O)C4(CCCCC4)OC3=O)cc2Cl)c1` [Example 27], the IC50 is ≤ 100 nM.

Take `Cc1cc(-c2cccc(S(C)(=O)=O)c2)c(Cl)cc1C1=C(O)C2(CCCN(C(=O)CCCc3ccccc3)C2)OC1=O` (stereo not shown) [Example 135]: the IC50 was ≤ 100 nM.

In the case of `Cc1cc(-c2cccc(NS(=O)(=O)c3cccnc3)c2)c(Cl)cc1C1=C(O)C2(CCCCC2)OC1=O` [Example 192], the IC50 was ≤ 100 nM.

Take `Cc1cc(-c2cccc(S(C)(=O)=O)c2)c(Cl)cc1C1=C(O)C2(CCCN(CC(=O)NCc3cccnc3)C2)OC1=O` (stereo not shown) [Example 162]: the IC50 was ≤ 100 nM.

Turning to `C=CS(=O)(=O)Nc1cccc(-c2cc(C)c(C3=C(O)C4(CCCCC4)OC3=O)cc2Cl)c1` [Example 193, N-[2′-Chloro-4′-(4-hydroxy-2-oxo-1-oxaspiro[4.5]dec-3-en-3-yl)-5′-methylbiphenyl-3-yl]ethenesulfonamide], the IC50 was ≤ 100 nM.

As to `Cc1cc(-c2cccc(C)c2C)c(Cl)cc1C1=C(O)C2(CCCCC2)OC1=O` [Example 33], the IC50 is ≤ 100 nM.

On to `COCCNC(=O)CN1CCCC2(C1)OC(=O)C(c1cc(Cl)c(-c3cccc(S(C)(=O)=O)c3)cc1C)=C2O` (stereo not shown) [Example 116], for which the IC50 is ≤ 100 nM.

As to `Cc1cc(-c2cccc(C#N)c2)c(Cl)cc1C1=C(O)C2(CCCCC2)OC1=O` [Example 37], the IC50 is ≤ 100 nM.

Take `Cc1cc(-c2cccc(S(C)(=O)=O)c2)c(Cl)cc1C1=C(O)C2(CCCN(CC(=O)NCc3ccoc3)C2)OC1=O` (stereo not shown) [Example 168]: the IC50 is ≤ 100 nM.

Take `Cc1cc(-c2ccc(Cl)cc2)c(C)cc1C1=C(O)C2(CCCCC2OC(C)C)OC1=O` (stereo not shown) [Example 13]: the IC50 is ≤ 100 nM.

On to `Cc1cc(-c2ccccc2)c(Cl)cc1C1=C(O)C2(CCCCC2)OC1=O` [Example 17, 3-(2-Chloro-5-methylbiphenyl-4-yl)-4-hydroxy-1-oxaspiro[4.5]dec-3-en-2-one], for which the IC50 was ≤ 100 nM.

On to `CC/C=C\C(=O)N1CCCC2(C1)OC(=O)C(c1cc(Cl)c(-c3cccc(S(C)(=O)=O)c3)cc1C)=C2O` (stereo not shown) [Example 120], for which the IC50 was ≤ 100 nM.

For the compound `Cc1cc(-c2ccc(NC(=O)C(C)(C)C)cc2)c(Cl)cc1C1=C(O)C2(CCCCC2)OC1=O` [Example 44], the IC50 was ≤ 100 nM.
